System: SV40 immortalized human corneal epithelial cells (HCE-T)
Test: Evaluation test of protective effect on corneal epithelial cell (drying load)
Type: cell-based
Conditions: 1 h pre-culture with 0.25% (w/v) propylene glycol and/or 0.03% (w/v) sodium hyaluronate, dried 7.5 minutes, FIG. 1
Protocol: SV40 immortalized human corneal epithelial cells: (HCE-T: RIKEN BioResource Center, Japan, Cell No.: RCB2280) were seeded to a 96-well plate (1×10^4 cells/well) and cultured for one day in an SHEM culture medium. On the next day, the culture medium was replaced with a D-MEM/F12 culture medium containing 0.25% (w/v) propylene glycol, 0.03% (w/v) sodium hyaluronate, or 0.25% (w/v) propylene glycol and 0.03% (w/v) sodium hyaluronate, and thereafter the corneal epithelial cells were cultured for one hour (hereinafter, each also referred to as a “propylene glycol alone group,” a “hyaluronic acid alone group,” or a “propylene glycol/hyaluronic acid combination group”). It is noted that a group that a culture medium was replaced with a D-MEM/F12 culture medium not containing a tested substance and thereafter the corneal epithelial cells were cultured for one hour was defined as a “vehicle group”. After culture, a culture medium of each group was replaced with a D-MEM/F12 culture medium not containing a tested substance and then cells were dried for 7.5 minutes. After drying load, cell viability was measured using Cell Proliferation Assay Kit (manufactured by Promega, catalogue No.: G3580) (corresponding to absorbance of 490 nm).

Row | Molecule | Suppression of decrease in cell viability of corneal epithelial cells due to drying load
1 | sodium hyaluronate [hyaluronic acid] | not sufficiently suppressed
2 | CC(O)CO (centres unmarked) [propylene glycol] | not sufficiently suppressed

From US20140088039A1, “OPHTHALMIC SOLUTION CONTAINING HYALURONIC ACID OR SALT THEREOF AND PROPYLENE GLYCOL” (priority 2011, published 2014)
